Data published in paper PMC12169608, “Peptidomimetic Phenoxymethyl Ketone Warheads as Potent Dual-Mode Inhibitors against SARS-CoV‑2 M^pro and Cathepsin” (Journal of Medicinal Chemistry, 2025).
Values after ≈ are worked out from the molar mass of the structure shown.

What was measured:
[1] = biological target: T1, human cathepsin L (hCTSL) (Homo sapiens, UniProt P07711); test: hCTSL biochemical assay
T1 construct: purchased R&D Systems

[2] = biological target: human cathepsin B (hCTSB) (Homo sapiens, UniProt P07858); test: hCTSB biochemical assay
[3] = biological target: mouse cathepsin L (mCTSL) (Mus musculus, UniProt P06797); test: mCTSL biochemical assay; settings: read-out: pIC50 (mouse CTSL) (converted)
[4] = biological target: mouse cathepsin B (mCTSB) (Mus musculus, UniProt P10605); test: mCTSB biochemical assay; settings: read-out: pIC50 (mouse CTSB) (converted)
hamster CTSL = hamster CTSL (Mesocricetus auratus, UniProt Q812A7); test: hamster CTSL biochemical assay
SARS-CoV-2 = test: microbe, parasite or virus in culture; format: cell-based; settings: Severe acute respiratory syndrome coronavirus 2, Vero C1008, read-out: SARS-CoV-2 CPE reduction assay pEC50 (converted)
thrombin = biological target: T2, thrombin (Homo sapiens, UniProt P00734); test: Protease panel: thrombin; format: biochemical
T2 construct: preincubated with thrombin (10 nM, Sigma); purchased Sigma-Aldrich

[5] = 3 h, 2 µM
in vitro [6] = settings: African green monkey
physchem [7] = settings: pH 7.4
physchem [8] = settings: pH 7.4; remark: listed apart in the source
in vitro [9] = settings: mouse, plasma, mouse plasma protein binding
in vitro [10] = settings: mouse, hepatocytes
in vitro [11] = settings: hamster, hepatocytes; for hepatocyte CLint at 2 h, 4 µM: CLint (hamster hepatocytes + ritonavir 4:1); for hepatocyte CLint at 2 h, 2 µM: CLint (hamster hepatocytes); for half-life at 2 h, 4 µM: t1/2 (hamster hepatocytes + ritonavir 4:1)
in vitro [12] = settings: hamster, microsomes, pH 7.4
trypsin = test: Protease panel: trypsin
[13] = Mouse hepatocyte stability; settings: mouse, cryopreserved hepatocytes
[14] = Hamster hepatocyte stability; settings: cryopreserved hepatocytes, t1/2 (hamster hepatocytes), without ritonavir
[15] = Hamster liver microsomal stability; settings: microsomes, pH 7.4
SARS-CoV-2 M^pro = SARS-CoV-2 M^pro (Severe acute respiratory syndrome coronavirus 2, UniProt P0DTD1); test: biochemical; format: biochemical; settings: read-out: M^pro biochemical assay pIC50 (converted)
[16] = system: luciferase-expressing VSV (ΔG) pseudotyped with Spike from SARS-CoV-2; test: microbe, parasite or virus in culture; format: cell-based; settings: Vesicular stomatitis virus, Vero C1008, read-out: Entry reporter assay pEC50 (converted)
Calpain-1 = biological target: T3, Calpain-1 (Homo sapiens, UniProt P07384); test: Protease panel: Calpain-1; format: biochemical
T3 construct: erythrocytes; tissue Eurofins Discovery (assay service); host or cells: human erythrocytes
T3 sequence (P07384 1-714): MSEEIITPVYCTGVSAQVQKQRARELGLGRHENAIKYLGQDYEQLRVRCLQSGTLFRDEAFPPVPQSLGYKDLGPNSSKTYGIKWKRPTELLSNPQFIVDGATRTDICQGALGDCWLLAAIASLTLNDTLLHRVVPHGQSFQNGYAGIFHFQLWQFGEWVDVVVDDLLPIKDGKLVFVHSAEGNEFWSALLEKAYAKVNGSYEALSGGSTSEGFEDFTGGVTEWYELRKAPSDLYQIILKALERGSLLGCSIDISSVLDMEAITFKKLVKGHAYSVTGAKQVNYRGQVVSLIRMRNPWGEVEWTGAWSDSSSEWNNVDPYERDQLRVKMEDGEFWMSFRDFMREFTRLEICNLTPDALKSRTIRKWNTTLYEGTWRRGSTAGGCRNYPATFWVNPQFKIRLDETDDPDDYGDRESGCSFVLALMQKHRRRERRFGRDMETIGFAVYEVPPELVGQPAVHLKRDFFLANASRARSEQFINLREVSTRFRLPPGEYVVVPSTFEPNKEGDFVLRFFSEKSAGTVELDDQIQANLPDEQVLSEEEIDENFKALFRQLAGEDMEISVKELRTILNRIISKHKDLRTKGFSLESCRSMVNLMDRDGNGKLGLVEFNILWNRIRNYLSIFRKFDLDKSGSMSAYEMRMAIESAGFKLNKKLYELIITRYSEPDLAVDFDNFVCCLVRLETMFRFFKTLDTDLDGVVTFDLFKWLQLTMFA
T3 sequence (P04632 1-268 partner): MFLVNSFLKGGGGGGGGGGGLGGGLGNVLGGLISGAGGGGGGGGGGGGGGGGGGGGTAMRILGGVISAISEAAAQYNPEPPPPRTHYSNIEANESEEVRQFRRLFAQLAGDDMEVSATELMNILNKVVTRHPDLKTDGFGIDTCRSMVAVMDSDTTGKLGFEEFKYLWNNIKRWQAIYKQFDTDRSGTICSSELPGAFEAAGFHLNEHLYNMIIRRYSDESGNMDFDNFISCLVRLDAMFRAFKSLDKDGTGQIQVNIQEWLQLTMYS

Caspase 2 = biological target: T4, Caspase 2 (Homo sapiens, UniProt P42575); test: Protease panel: Caspase 2; format: biochemical
T4 construct: purchased Eurofins Discovery (assay service); host or cells: E. coli
T4 sequence (P42575 170-325 limits assumed): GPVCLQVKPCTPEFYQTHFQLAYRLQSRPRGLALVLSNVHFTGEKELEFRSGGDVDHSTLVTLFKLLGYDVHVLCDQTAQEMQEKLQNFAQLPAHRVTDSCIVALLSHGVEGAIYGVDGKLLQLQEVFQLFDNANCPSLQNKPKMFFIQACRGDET
T4 sequence (P42575 348-452 limits assumed): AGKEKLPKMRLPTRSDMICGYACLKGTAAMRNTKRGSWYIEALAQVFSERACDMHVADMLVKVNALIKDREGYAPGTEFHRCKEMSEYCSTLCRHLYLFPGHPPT

Cathepsin D = biological target: T5, Cathepsin D (Homo sapiens, UniProt P07339); test: Protease panel: Cathepsin D; format: biochemical
T5 construct: Human liver; tissue Eurofins Discovery (assay service); host or cells: human liver

Neutrophil Elastase 2 = biological target: T6, Neutrophil Elastase 2 (Homo sapiens, UniProt P08246); test: Protease panel: Neutrophil Elastase 2; format: biochemical
T6 construct: neutrophils; tissue Eurofins Discovery (assay service); host or cells: human neutrophils
T6 sequence (P08246 30-267): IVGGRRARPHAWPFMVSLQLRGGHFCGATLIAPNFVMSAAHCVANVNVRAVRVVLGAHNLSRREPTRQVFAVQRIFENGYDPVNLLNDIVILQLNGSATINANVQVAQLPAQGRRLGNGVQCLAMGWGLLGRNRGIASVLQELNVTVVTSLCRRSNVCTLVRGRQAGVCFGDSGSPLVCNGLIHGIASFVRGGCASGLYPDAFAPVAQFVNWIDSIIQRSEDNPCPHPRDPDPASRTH

in vitro [17] = settings: mouse, microsomes, pH 7.4
[18] = Mouse liver microsomal stability; settings: microsomes, pH 7.4
[19] = % remaining at 120 min (hamster hepatocytes, compound/ritonavir 1:1)
[20] = % remaining at 120 min (hamster hepatocytes, compound/ritonavir 2:1)
[21] = CLint (hamster hepatocytes, compound/ritonavir 1:1)
[22] = CLint (hamster hepatocytes, compound/ritonavir 2:1)
[23] = t1/2 (hamster hepatocytes, compound/ritonavir 1:1)
[24] = t1/2 (hamster hepatocytes, compound/ritonavir 2:1)

Sequence of mouse cathepsin L (mCTSL) (P06797 114-334): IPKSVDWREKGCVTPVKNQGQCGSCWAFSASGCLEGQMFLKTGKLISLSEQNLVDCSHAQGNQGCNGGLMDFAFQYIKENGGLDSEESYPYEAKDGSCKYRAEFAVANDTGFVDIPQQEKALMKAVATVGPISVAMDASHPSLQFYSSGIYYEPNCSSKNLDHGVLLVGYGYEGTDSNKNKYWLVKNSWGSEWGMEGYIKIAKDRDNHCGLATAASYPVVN
T1 sequence (P07711 114-333): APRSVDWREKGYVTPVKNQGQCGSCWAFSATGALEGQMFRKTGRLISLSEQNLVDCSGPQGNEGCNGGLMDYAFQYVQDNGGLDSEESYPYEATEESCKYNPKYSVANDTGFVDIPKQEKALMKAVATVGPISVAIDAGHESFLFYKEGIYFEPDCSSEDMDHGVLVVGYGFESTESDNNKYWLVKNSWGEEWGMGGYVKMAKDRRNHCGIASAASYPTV
Sequence of hamster CTSL (Q812A7 entry or part of it): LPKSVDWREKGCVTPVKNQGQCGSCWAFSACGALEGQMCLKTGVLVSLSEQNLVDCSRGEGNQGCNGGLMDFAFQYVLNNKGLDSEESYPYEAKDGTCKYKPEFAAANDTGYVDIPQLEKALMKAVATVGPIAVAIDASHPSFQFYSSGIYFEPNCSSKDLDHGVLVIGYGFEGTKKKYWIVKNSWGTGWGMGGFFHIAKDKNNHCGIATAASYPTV
T5 sequence (P07339 65-412): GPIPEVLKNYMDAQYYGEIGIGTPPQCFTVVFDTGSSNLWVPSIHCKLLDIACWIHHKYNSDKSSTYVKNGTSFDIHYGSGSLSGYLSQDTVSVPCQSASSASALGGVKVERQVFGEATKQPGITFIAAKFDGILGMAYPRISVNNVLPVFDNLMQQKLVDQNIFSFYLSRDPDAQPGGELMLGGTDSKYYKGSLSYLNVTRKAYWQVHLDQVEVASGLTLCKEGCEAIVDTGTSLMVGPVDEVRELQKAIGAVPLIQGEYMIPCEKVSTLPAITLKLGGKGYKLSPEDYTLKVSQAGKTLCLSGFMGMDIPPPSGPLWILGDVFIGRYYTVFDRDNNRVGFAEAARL
Sequence of mouse cathepsin B (mCTSB) (P10605 80-339): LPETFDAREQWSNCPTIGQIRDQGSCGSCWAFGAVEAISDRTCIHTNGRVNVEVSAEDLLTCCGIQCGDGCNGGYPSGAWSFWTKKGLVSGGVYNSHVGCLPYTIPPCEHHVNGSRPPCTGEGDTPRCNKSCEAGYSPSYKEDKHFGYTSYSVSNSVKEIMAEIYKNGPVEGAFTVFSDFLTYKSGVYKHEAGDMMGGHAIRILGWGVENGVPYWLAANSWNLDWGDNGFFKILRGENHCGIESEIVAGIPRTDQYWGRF

SMILES | hCTSL biochemical assay pIC50 [1] | hCTSB biochemical assay pIC50 [2] | IC50 [3] | EC50 (SARS-CoV-2) | mouse plasma protein binding, fraction bound (Fb) [5] | CC50 (in vitro [6]) | logD at 1 h (physchem [7]) | solubility kinetic at 24 h (physchem [8]) | fraction unbound at 3 h, 2 µM (in vitro [9]; fraction bound (Fb)) | fraction unbound at 3 h, 2 µM (in vitro [9]; fraction unbound (Fu)) | remaining at 2 h, 1 µM (in vitro [11]; [19]) | remaining at 2 h, 1 µM (in vitro [11]; [20]) | hepatocyte CLint at 2 h, 4 µM (in vitro [11]) | hepatocyte CLint at 2 h, 2 µM (in vitro [11]) | hepatocyte CLint at 1 µM (in vitro [11]; [21]) | hepatocyte CLint at 1 µM (in vitro [11]; [22]) | half-life at 2 h, 4 µM (in vitro [11]) | half-life at 1 µM (in vitro [11]; [23]) | half-life at 1 µM (in vitro [11]; [24]) | microsomal CLint at 1 µM (in vitro [12]) | further results
CC(C)(C)[C@H](NC(=O)C(F)(F)F)C(=O)N1C[C@H]2[C@@H]([C@H]1C(=O)N[C@@H](C[C@@H]1CCNC1=O)C(=O)COc1c(F)c(F)c(CO)c(F)c1F)C2(C)C [compound 7, (1R,2S,5S)-3-((S)-3,3-Dimethyl-2-(2,2,2-trifluoroacetamido)butanoyl)-6,6-dimethyl-N-((S)-3-oxo-1-((S)-2-oxopyrrolidin-3-yl)-4-(2,3,5,6-tetrafluoro-4-(hydroxymethyl)phenoxy)butan-2-yl)-3-azabicyclo[3.1.0]hexane-2-carboxamide] | < 4.30 | 4.82 | 35.5 µM | 0.0501 µM | 96.45% | > 0.501 µM | 2.82 | 71.3 µM (≈ 50.7 µg/mL) | 0.0355 | 0.0355 | 20.8% | 3.47% | 41.9 µL/min/1e6 cells | 50.2 µL/min/1e6 cells | 12.5 µL/min/1e6 cells | 27.4 µL/min/1e6 cells | 16.6 min | 55.5 min | 25.3 min | 803 µL/min/mg | hCTSL activity (in words) ([1]; biochemical assay): no hCTSL and hCTSB activity was observed; hCTSB activity (in words) ([2]; biochemical assay): no hCTSL and hCTSB activity was observed; IC50 [4]: 1.86 µM; pIC50 (hamster CTSL) (hamster CTSL): 5.07 ± 0.10; inhibition at 10 µM (thrombin): 0.4 ± 0.9%; hepatocyte CLint at 1 µM (in vitro [10]; CLint (mouse hepatocytes + ritonavir 4:1)): 21.8 µL/min/1e6 cells; hepatocyte CLint at 1 µM (in vitro [10]; CLint (mouse hepatocytes)): 121 µL/min/1e6 cells; remaining at 1 h, 1 µM (in vitro [12]): 0.15%; Trypsin inhibition at 10 μM (trypsin): 9.9 ± 6.6%; half-life at 1 µM [13]: 14.3 min; half-life at 2 h, 2 µM [14]: 13.8 min; half-life at 1 µM [15]: 1.73 min
COc1cccc2[nH]c(C(=O)N[C@@H](Cc3cccc(F)c3)C(=O)N[C@@H](C[C@@H]3CCNC3=O)C(=O)COc3c(F)c(F)c(C(C)O)c(F)c3F)cc12 (stereo partly drawn) [compound 8, N-((2S)-3-(3-Fluorophenyl)-1-oxo-1-(((2S)-3-oxo-1-((S)-2-oxopyrrolidin-3-yl)-4-(2,3,5,6-tetrafluoro-4-(1-hydroxyethyl)phenoxy)butan-2-yl)amino)propan-2-yl)-4-methoxy-1H-indole-2-carboxamide] | 7.34 | 5.73 | 0.288 µM | 0.158 µM | 99.17% | > 1.26 µM | 3.26 | 12.3 µM (≈ 8.81 µg/mL) | 0.0083 | 0.0083 | 7.05% | 2.78% | 29.7 µL/min/1e6 cells | 33.1 µL/min/1e6 cells | 22.6 µL/min/1e6 cells | 31.7 µL/min/1e6 cells | 23.3 min | 30.7 min | 21.9 min | 1290 µL/min/mg | IC50 (SARS-CoV-2 M^pro): 0.00562 µM; pIC50 (hamster CTSL) (hamster CTSL): 7.92 ± 0.18; EC50 [16]: 2.88 µM; inhibition at 10 µM (Calpain-1): 5%; inhibition at 10 µM (Caspase 2): 20%; inhibition at 10 µM (Cathepsin D): 9%; inhibition at 10 µM (Neutrophil Elastase 2): 2%; inhibition at 10 µM (thrombin): -0.2 ± 0.6%; hepatocyte CLint at 2 h, 2 µM (in vitro [10]; CLint (mouse hepatocytes)): 64.5 µL/min/1e6 cells; microsomal CLint at 1 µM (in vitro [17]): 1100 µL/min/mg; remaining at 1 h, 1 µM (in vitro [17]): 0%; remaining at 1 h, 1 µM (in vitro [12]): 0%; Trypsin inhibition at 10 μM (trypsin): 7.5 ± 4.9%; half-life at 1 µM [13]: 26.9 min; half-life at 2 h, 2 µM [14]: 20.9 min; half-life at 1 µM [18]: 1.28 min; half-life at 1 µM [15]: 1.08 min
COc1cccc2[nH]c(C(=O)N[C@@H](Cc3cccc(F)c3)C(=O)N[C@@H](C[C@@H]3CCNC3=O)C(=O)COc3c(F)c(F)c(C(C)(C)O)c(F)c3F)cc12 [compound 10, N-((S)-3-(3-Fluorophenyl)-1-oxo-1-(((S)-3-oxo-1-((S)-2-oxopyrrolidin-3-yl)-4-(2,3,5,6-tetrafluoro-4-(2-hydroxypropan-2-yl)phenoxy)butan-2-yl)amino)propan-2-yl)-4-methoxy-1H-indole-2-carboxamide] | 6.95 | 5.94 | 0.933 µM | 0.12 µM | 98.95% | > 1.26 µM | 3.15 | 3.65 µM (≈ 2.67 µg/mL) | 0.0105 | 0.0105 | 11.6% | 2.17% | 19.4 µL/min/1e6 cells | 27.5 µL/min/1e6 cells | 16.4 µL/min/1e6 cells | 30.7 µL/min/1e6 cells | 35.7 min | 42.2 min | 22.6 min | 500 µL/min/mg | IC50 (SARS-CoV-2 M^pro): 0.00708 µM; EC50 [16]: 2.04 µM; hepatocyte CLint at 2 h, 2 µM (in vitro [10]; CLint (mouse hepatocytes)): 47.6 µL/min/1e6 cells; microsomal CLint at 1 µM (in vitro [17]): 780 µL/min/mg; remaining at 1 h, 1 µM (in vitro [17]): 0%; remaining at 1 h, 1 µM (in vitro [12]): 0%; half-life at 1 µM [13]: 36.4 min; half-life at 2 h, 2 µM [14]: 25.2 min; half-life at 1 µM [18]: 1.9 min; half-life at 1 µM [15]: 2.77 min
